Experimental data reported in US4906658A, “Fluoro-sulfones” (Merck Frosst Canada, Inc., priority 1987, dated 1990).
“And” between values parts separate entries of the source, which are not always exact repeats. Identical values can stand only once. Like-named read-outs stand apart in the source and are kept apart here.

Key:
[1] = tested on: antigen (egg albumin)-induced continuous dyspnea in inbred asthmatic rats; assay: Asthmatic Rat Assay: duration of continuous dyspnea after aerosolized antigen challenge in sensitized inbred asthmatic rats; format: in vivo; details: for ED50: Rattus norvegicus, po, read-out: ED50 p.o. (dose which would inhibit the duration of symptoms by 50%)
Excerpt: Sensitized inbred "asthmatic rats" challenged with aerosolized antigen respond with symptoms of continuous dyspnea which is partly mediated by serotonin. […] These rats differ from normal rats in that they have non-specific bronchial hyperreactivity to a number of bronchoconstrictor agents (Brunet et al, J. Immunol., 131, 434 (1983)).
Pretreatment with drugs is used to measure the decrease of the duration of continuous dyspnea and, at higher doses, to eliminate the response (piechuta et a1, Immunology, 38, 385 (1979)).
(1) Animals: Male and female inbred asthmatic rats were used between 10-12 weeks of age. Their weights ranged from 190-250 gm (females) and 260-400 gm (males). Rats were matched by sex and littermates between the various treatment groups. Animals were starved overnight. Water was supplied ad lib.
(2) Materials: Egg albumin (EA), grade V, crystallized and lyophilized was obtained from Sigma Chemical Co., St. Louis. Aluminum hydroxide was obtained from the Reheis Chemical Company, Chicago. Methysergide Bimaleate was supplied by Sandoz Ltd., Basel, Switzerland. Serotonin creatinine sulfate was obtained from Calbiochem-Behring Corp., La Jolla, Calif.
(3) Apparatus: The challenge and subsequent respiratory recordings were carried out in a clear
plastic box with internal dimensions 10×6×4 inches. The top of the box was removable; in use, it was held firmly in place by four clamps and an airtight seal was maintained by a soft rubber gasket. […] A Fleisch No. 0000 pneumotachograph was inserted into one end of the box and coupled to a Grass volumetric pressure transducer (PT5-A) which was then connected to a Beckman Type R Dynograph through appropriate couplers. While aerosolizing the antigen, the outlets were open and the pneumotachograph was isolated from the chamber. The outlets were closed and the pneumotachograph and the chamber were connected during the recordings of the respiratory patterns. For challenge, 2 mL of a 3% solution of antigen in saline was placed into each nebulizer and the aerosol was generated with air from a small Potter diaphragm pump operating at 10 psi and a flow of 8 liters/min.
(4) Procedure: Rats were sensitized by injecting (s.c.) 1 mL of suspension containing 1 mg albumin (EA) and 200 mg aluminum hydroxide in saline. They were used between days 12 and 24 post sensitization. Rats were exposed to aerosol of 3% EA in saline for exactly 1 minute, then their respiratory profiles were recorded for a further 30 minutes. The duration of continuous dyspnea was measured from the respiratory recordings.
Compounds were generally administered either orally 1, 2, 4 or 6 hours prior to challenge or intravenously 2 minutes prior to challenge. Dose volume for oral treatments was 10 mL/kg and for i.v. treatments 1 mL/kg. Compounds were dissolved in distilled water. Methysergide bimaleate was dissolved in saline and administered intravenously at dose of 3 μg/kg 5 minutes before antigen challenge.
The sensitivity of various drug treatments were determined in terms of the decrease in duration of dyspnea in comparison with a group of vehicle treated controls. Usually, a compound was evaluated at a series of doses and an ED50 value was determined. This was defined as the dose (mg/kg) which would inhibit the duration of symptoms by 50%.

[2] = tested on: leukotrienes C4, D4 and E4 and SRS-A; assay: antagonism of leukotrienes C4, D4 and E4 and of SRS-A; details: versus closely related compounds within the scope of EP No. 104,885
Excerpt: The compounds of Formula I are active as antagonists of SRS-A and of leukotriene. The activity of the compounds of Formula I can be detected and evaluated by methods known in the art. See, for example, Kadin, U.S. Pat. No. 4,296,129.

[3] = tested on: antigen (egg albumin)-induced continuous dyspnea in inbred asthmatic rats; details: 3 μg/kg i.v. before challenge; cited from earlier work
[4] = 1.5 mg/kg p.o., 1 hour before challenge

Structure (SMILES): CCCc1c(O)c(C(C)=O)cc(F)c1OCCCS(=O)(=O)c1ccc([C@H](O)[C@@H](C)CC(=O)O)cc1 (relative stereo) [Compound I, (4R*,3S*)-4-[4-(3-(4-acetyl-6-fluoro-3-hydroxy-2-propylphenoxy)propyl-sulfonyl)phenyl]-4-hydroxy-3-methylbutanoic acid]
- Inhib. of Dyspnea ([1]; 0.05 mg/kg p.o., 2 hours before challenge): 40%
- Inhib. of Dyspnea ([1]; 0.15 mg/kg p.o., 2 hours before challenge): 48%
- Inhib. of Dyspnea ([1]; 0.5 mg/kg p.o., 2 hours before challenge): 57%
- Inhib. of Dyspnea [1, 4]: 55%
- Inhib. of Dyspnea ([1]; 1.5 mg/kg p.o., 2 hours before challenge): 59% and 65%
- Inhib. of Dyspnea ([1]; 1.5 mg/kg p.o., 4 hours before challenge): 65%
- Inhib. of Dyspnea ([1]; 1.5 mg/kg p.o., 6 hours before challenge): 63%
- ED50 ([1]; 2 hrs before challenge): 0.21 mg/kg
- absorption by the oral route ([1]; judged from activity p.o. in the Asthmatic Rat Assay): good absorption by the oral route
- duration of action ([1]; p.o., in words): satisfactory duration of action
- potency ([1]; p.o., in words): high potency
- activity compared with the closely related reference compounds ([1]; versus Ex. 77 and Ex. 93 of EP 104,885, p.o.): significantly more active than the closely related reference compounds
- potency as antagonists of leukotrienes C4, D4 and E4 and of SRS-A [2]: unexpectedly much more potent

Structure (SMILES): CCCc1c(OCCCS(=O)(=O)c2ccc([C@H](O)[C@@H](C)CC(=O)O)cc2)ccc(C(C)=O)c1O (relative stereo) [Ex. 77, (4R*,3S*)-4-[4-(3-(4-acetyl-3-hydroxy-2-propylphenoxy)propylsulfonyl)phenyl]-4-hydroxy-3-methybutanoic acid, reference compound]
- Inhib. of Dyspnea ([1]; 0.15 mg/kg p.o., 1 hour before challenge): 33%
- Inhib. of Dyspnea ([1]; 0.5 mg/kg p.o., 1 hour before challenge): 29%
- Inhib. of Dyspnea [1, 4]: 29%
- Inhib. of Dyspnea ([1]; 5.0 mg/kg p.o., 1 hour before challenge): 44%
- ED50 ([1]; 1 hr before challenge): > 5 mg/kg

Structure (SMILES): CCCc1c(O)c(C(C)=O)cc(F)c1OCCCSc1ccc([C@H](O)[C@@H](C)CC(=O)O)cc1 (relative stereo) [Ex. 93, (4R*,3S*)-4-[4-(3-(4-acetyl-6-fluoro-3-hydroxy-2-propylphenoxy)propylthio)phenyl]-4-hydroxy-3-methylbutanoic acid, reference compound]
- Inhib. of Dyspnea [1, 4]: 26%

Structure (SMILES): CC[C@@H](CO)NC(=O)[C@@H]1C=C2c3cccc4c3c(cn4C)C[C@H]2N(C)C1 [methysergide]
- blocking of the serotonin component of continuous dyspnea [3]: completely blocked
